The source of these data is patent US12435088B2, “Salicyl-adenosinemonosulfamate analogs and uses thereof” (priority 2018, dated 2025).

Data set [1] concerns M. tuberculosis H37Rv. In words: Growth inhibition assay (Alamar Blue MIC) for M. tuberculosis H37Rv. Particulars: at least 90% inhibition, 7 days. The class given is cell-based, Mycobacterium tuberculosis. Background: Resazurin is reduced to fluorescent resorufin, in cell work by metabolically active cells.
In data set [2] the test system is Msm ΔM. The data set is classed as cell-based, Mycobacterium smegmatis.
The subject of data set [3] is mammalian cells. The note with it: cited from earlier work.
The subject of data set [4] is MBT production in Msm ΔEM-pMbtAtb. The data set is classed as cell-based, Mycobacterium smegmatis. The note with it: FIG. 7, radio-TLC.
In data set [5] the test system is Mtb. Particulars: cited from earlier work.
The test system of data set [6] is Msm ΔE. The data set is classed as cell-based, Mycobacterium smegmatis.
The test system of data set [7] is Msm WT. In words: Growth inhibition microdilution assay, Msm WT. The class given is cell-based, Mycobacterium smegmatis. In general terms: In broth dilution the organism is exposed to a series of concentrations in liquid medium.
Data set [8] deals with MbtAtb (Mycobacterium tuberculosis (strain ATCC 25618 / H37Rv), UniProt P71716). Particulars: cited from earlier work.
Sequence of MbtAtb (P71716 whole entry, looked up): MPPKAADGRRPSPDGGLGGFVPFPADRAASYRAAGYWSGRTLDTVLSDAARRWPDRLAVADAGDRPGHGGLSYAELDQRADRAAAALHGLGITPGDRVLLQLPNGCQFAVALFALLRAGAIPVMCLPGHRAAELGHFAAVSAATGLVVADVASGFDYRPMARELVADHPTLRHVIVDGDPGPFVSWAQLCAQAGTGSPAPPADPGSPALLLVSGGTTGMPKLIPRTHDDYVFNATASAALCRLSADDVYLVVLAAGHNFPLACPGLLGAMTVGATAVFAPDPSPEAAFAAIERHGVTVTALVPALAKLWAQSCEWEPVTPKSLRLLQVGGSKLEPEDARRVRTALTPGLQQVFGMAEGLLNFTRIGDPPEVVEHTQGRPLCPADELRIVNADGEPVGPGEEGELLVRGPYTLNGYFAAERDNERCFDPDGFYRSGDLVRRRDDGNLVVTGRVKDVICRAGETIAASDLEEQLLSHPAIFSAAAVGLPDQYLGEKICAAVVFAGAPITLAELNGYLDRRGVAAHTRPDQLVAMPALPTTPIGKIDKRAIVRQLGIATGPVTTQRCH
Data set [9] has as its system M. smegmatis ΔEM-pMbtAtb. The experiment in a line: microbe, parasite or virus in culture. The data set is classed as cell-based, Mycobacterium smegmatis. Particulars: for MIC (μg/ml), mean / MIC (μg/ml), range: GASTD medium, three independent experiments.
Data set [10] deals with Msm ΔEM. The data set is classed as cell-based, Mycobacterium smegmatis. The note with it: GASTD + Fe medium.
The subject of data set [11] is M. smegmatis ΔEM-pMbtAtb. The experiment in a line: Post-antibiotic effect (PAE) washout assay.
Method: Cells from mid-log growth phase cultures of Msm ΔEM-pMbtAtb in GASTD medium (37° C., 170 rpm, OD600≈0.75) were harvested by centrifugation and washed in GASTD medium (3 times with I culture volume). The washed cells were resuspended in GASTD medium and transferred to U-bottom 96-well cell culture plates (Corning, Inc.) for inhibitor exposure at a cell density corresponding to OD600=1.0 (50 μL/well). […] Inhibitors were added from 10% DMSO stock solutions, with a final DMSO concentration of 1% in both inhibitor-exposed cultures and DMSO controls (no inhibitor). […] The 96-well plates were incubated for culture growth at 37° C. in a FLUOstar Optima microplate reader (BMG Labtech, Inc.), and OD600 readings were taken every 30 min following plate shaking (5 min, 200 rpm) for 5 days. The growth vs. time datasets were analyzed to determine the time at which cultures reached an exponential growth phase threshold of OD600=0.05 (≈5% of maximal growth) (FIG. 8). The time-to-threshold data were used to calculate PAE as the difference between the time-to-threshold values of the inhibitor-exposed culture and the control cultures (Stubbings, W. J., et al. (2004) J. Antimicrob. Chemother. 54, 139-143). Data presented are derived from three independent experiments.
The test system of data set [12] is PPT/PNP coupling system. In words: Off-target control: effect on PPT/PNP coupling system of the HA-MesG assay. The data set is classed as biochemical. On the procedure:
The adenylation activity of H10MbtA^opt and its inhibition were evaluated using a H10MbtA^opt-optimized variation of the hydroxylamine-7-methyl-6-thioguanosine (HA-MesG) spectrophotometric assay (Wilson, D. J., et al. (2010) Anal. Biochem. 404, 56-63). The assay was carried out in a 96-well plate format as previously reported (Davis, T. D., et al. (2016) Bioorg. Med. Chem. Lett. 26, 5340-5345). The assay reaction mixture was optimized for H10MbtAopt activity. Optimization experiments included evaluation of various concentrations of Tris·HCl (and pH), hydroxylamine, MesG, ATP, NaCl, MgCl2, glycerol, reducing agents (DTT and TCEP), and detergent (IGEPAL, CHAPS, and Triton-X100). Unless otherwise indicated for specific experiments, the optimized assay reaction mixture contained the following: 50 mM Tris·HCl, pH 8.0; 3 mM MgCl2; 0.5 mM DTT; 0.1 U purine nucleoside phosphorylase (PNP); 0.04 U inorganic pyrophosphatase (PPT); 450 mM hydroxylamine; 0.4 mM MesG; 1 mM ATP; 300 μM salicylic acid; 0.01% CHAPS buffer; 7.5% ultrapure glycerol; and H10MbtA^opt at concentrations noted for specific experiments. […] Reactions were preincubated for 10 min at 25° C. before being initiated by the addition of either salicylic acid for steady state kinetic analysis or H10MbtA^opt for progress curve analysis. The phosphorolysis of MesG was measured continuously at either regular 1-min intervals (for steady state kinetic analysis) or 25-sec intervals (for progress curves analysis) for up to 45 min, at 360 nm and 25° C. in a DTX 880 multimode detector microplate reader (Beckman Coulter, Inc.).

In data set [13] the target is T1, H10MbtA^opt (MbtAtb) (Mycobacterium tuberculosis (strain ATCC 25618 / H37Rv), UniProt P71716). In words: biochemical.
T1 sequence (P71716 whole entry, added parts left off): as the sequence (P71716 whole entry, looked up) above
The target in data set [14] is T1, H10MbtA^opt (MbtAtb). The experiment in a line: Progress curve analysis of H10MbtA^opt inhibition (HA-MesG assay). The data set is classed as biochemical.
[15] abbreviates: Table 8, GASTD + Fe medium, tested up to 64 μg/mL.
The mark [16] stands for this setting: IC50 (nM), H10MbtA^opt at 250 nM, two independent dose-response experiments.
The mark [17] stands for this setting: IC50, preliminary dose-response experiment (vi/vo vs. log[inhibitor]), FIG. 4A-C, single experiment, inhibition of H10MbtA^opt.
Where [18] appears, read: Mycolicibacterium smegmatis, read-out: MIC (μg/ml), mean.

≈ marks a conversion by molar mass, not a printed value. Read-outs that look alike come from different tables or passages of the source. Marks after values point to notes of the source that are not given here. A value given as a limit tells only on which side of the number the result lay.

On to “5′-O—[N-salicylsulfamoyl]adenosine [compound 1]”, for which the “MIC” value in data set [1] (GAST-D + Fe medium (100 μM FeCl3)) was 0.5 to 1.0 µg/mL; in data set [1] (GAST-D medium), 0.125 to 0.25 µg/mL; in [2] (GASTD + Fe medium), greater than 1000 µg/mL; in data set [2] (GASTD medium (Fe-limiting)), greater than 1000 µg/mL; in [6] (GASTD + Fe medium) it was greater than 1000 µg/mL; in data set [6] (GASTD medium (Fe-limiting)), 0.5 to 1.0 µg/mL. The “MIC” value in data set [7] (GASTD + Fe medium) was greater than 1000 µg/mL; in [7] (GASTD medium (Fe-limiting)), greater than 1000 µg/mL; in data set [9] (Table 7, Msm ΔEM-pMbtAtb (−/+), GASTD + Fe medium) it was greater than 1000 µg/mL; in data set [9] (Table 7, Msm ΔEM-pMbtAtb (−/+), GASTD medium (Fe-limiting)), 0.5 to 1.0 µg/mL; in data set [9] (setting [15]) it was greater than 64 µg/mL; in data set [10], greater than 1000 µg/mL. Further, the “Cytotoxicity against mammalian cells” value in data set [3] was “not cytotoxic”. Further, the “Effect on MBT production” value in [4] was “inhibited MBT production”. Further, the “Mtb growth in the mouse lung” value in data set [5] (monotherapy at 5.6 or 16.7 mg/kg) is “significant reduction of Mtb growth in the mouse lung”. Besides, in data set [5] (mouse), the “Dose at which in vivo toxicity was observed” value is no less than 16.7 mg/kg. Moreover, the “Inhibition of MbtAtb (previous in vitro studies)” value in data set [8] was “potent, selective, tight-binding inhibitor”. Besides, the “MIC (μg/ml), mean” value in [9] (Table 8) was determined as 0.83 ± 8.17 µg/mL. For the same molecule, the “MIC (μg/ml), range” value in data set [9] (Table 8) is recorded as 0.5-1.0^b μg/ml. The entries for the “PAE” value in [11] (1 h exposure at 5 × MIC), in [11] (1 h exposure at 50 × MIC) and in data set [11] (1 h exposure at 100 × MIC) were 9.4 ± 1.6 h, 14.2 ± 0.9 h and 34.5 ± 1.8 h, respectively.

The IC50 is the point on the concentration scale where inhibition reaches its midpoint. On to `Nc1ncnc2c1ncn2[C@@H]1OC(CNS(=O)(=O)NC(=O)c2ccccc2O)[C@@H](O)[C@H]1O` (some centres unmarked) [4a, salicyl-AMSN], for which the “Fractional velocity v1/v0” value in [12] ([inhibitor] = 4 μM) stood at 0.94; in data set [12] ([inhibitor] = 40 µM), 0.96. The IC50 in data set [13] (H10MbtA^opt at 250 nM, two independent dose-response experiments, read-out: IC50) came out at 246 ± 2.9 nM. Moreover, in [9] (setting [15]), the “MIC” value is greater than 64 µg/mL. In addition, the “MIC (μg/ml), mean” value in data set [9] (Table 8) worked out at 1.00 ± 0 µg/mL (≈ 2.15 µM). Also, the “MIC (μg/ml), range” value in [9] (Table 8) was 1.0 µg/mL (≈ 2.15 µM). Further, the “PAE” value in data set [11] (1 h exposure at 5 × MIC) stood at 10.6 ± 2.7 h; in [11] (1 h exposure at 50 × MIC), 18.7 ± 1.3 h; in [11] (1 h exposure at 100 × MIC) it was 23.1 ± 3.1 h. Moreover, the Ki in data set [14] (H10MbtA^opt 1 μM, inhibitor 4,000-1,041 nM, minimum of five independent experiments, read-out: Ki^app) was found to be 0.295 ± 0.0239 µM.

Turning to `CN(C[C@H]1O[C@@H](n2cnc3c(N)ncnc32)[C@H](O)[C@@H]1O)S(=O)(=O)NC(=O)c1ccccc1O` [4b, N—(N-(((2R,3S,4R,5R)-5-(6-Amino-9H-purin-9-yl)-3,4-dihydroxytetrahydrofuran-2-yl)-methyl)-N-methylsulfamoyl)-2-hydroxybenzamide], the IC50 turned out to be 175 ± 4.3 nM in data set [13] (setting [16]) and 179 nM in data set [13] (setting [17]). For the same molecule, in [9] (setting [18]), the MIC amounted to 0.83 ± 0.17 µg/mL (≈ 1.73 µM). Further, in data set [9] (Table 8), the “MIC (μg/ml), range” value lay within 0.5 to 1.0 µg/mL. For the same molecule, the “PAE” value was found to be 13.4 ± 2.6 h in data set [11] (1 h exposure at 5 × MIC), 17.4 ± 4.7 h in data set [11] (1 h exposure at 50 × MIC) and 10.4 ± 2.2 h in [11] (1 h exposure at 100 × MIC). In data set [14], the Ki is 0.159 ± 0.0081 µM.

For the molecule `COc1ncnc2c1ncn2[C@@H]1O[C@H](CNS(=O)(=O)NC(=O)c2ccccc2O)[C@@H](O)[C@H]1O` [compound 6, N—(N-(((2R,3S,4R,5R)-3,4-Dihydroxy-5-(6-methoxy-9H-purin-9-yl)tetrahydrofuran-2-yl)methyl)sulfamoyl)-2-hydroxybenzamide], the “Fractional velocity v1/v0” value in data set [12] ([inhibitor] = 4 μM) and in data set [12] ([inhibitor] = 40 µM) was 1.00 in each case. The MIC in [1] (Mycobacterium tuberculosis, H37RV, 168 h, GAST-D + Fe medium (100 μM FeCl3), read-out: MIC) was 0.5 to 1 µg/mL; in [1] (Mycobacterium tuberculosis, H37RV, 168 h, GAST-D medium, read-out: MIC) it was 0.125 to 0.25 µg/mL (≈ 0.26 to 0.52 µM); in data set [9] (setting [18]), 5.33 ± 1.33 µg/mL (≈ 11.1 µM); in data set [9] (setting [15]) it was greater than 64 µg/mL. In addition, in data set [13] (HA-MesG assay), the “Inhibitor behavior (IC50≈½ [E])” value is “tight-binding inhibitor behavior”. The IC50 in data set [13] (setting [16]) is 289 ± 16.4 nM; in data set [13] (setting [17]), 273 nM. Further, in data set [9] (Table 8), the “MIC (μg/ml), range” value was 4.0 to 8.0 µg/mL. In [14], this molecule showed a Ki of 0.277 ± 0.0122 µM. The “Mechanism of inhibition from progress curves” value in data set [14] (time-dependent inhibition of H10MbtAopt) is given as “slow-onset inhibitors”.

On to `O=C(NS(=O)(=O)O)c1ccccc1O` [compound 8, salicyl-sulfamate], for which the IC50 in [13] (IC50 (mM), effect on the MbtAtb-dependent signal in the HA-MesG assay, salicyl-AMS fragments, nonspecific inhibition control) was roughly 1e+06 nM.
